Literature values, collected in article PMC4832855 (Cancer Science, 2016).

Assays:
Conditions in all cases: cited from earlier work
patients = test system: patients
IGF‐1R = test system: IGF‐1R
p381 = test system: p381
Met = test system: Met
Jak2 = test system: Jak2
Src = test system: Src
AurA = test system: AurA
IR = test system: IR
Btc = test system: Btc
AurB = test system: AurB
Lck = test system: Lck

| SMILES | Activity as monotherapy in early clinical trials (patients) | IC50 (IGF‐1R) | Overall or progression‐free survival compared to placebo (patients; monotherapy, phase III, metastatic adrenocortical carcinoma) | IC50 (p381) | IC50 (Met) | IC50 (Jak2) | IC50 (Src) | IC50 (AurA) | IC50 (IR) | IC50 (Btc) | IC50 (AurB) | IC50 (Lck) |
| --- | --- | --- | --- | --- | --- | --- | --- | --- | --- | --- | --- | --- |
| C[C@@]1(C(=O)Nc2ccc(F)nc2)CCCN1c1nc(Nc2cc(C3CC3)n[nH]2)c2cccn2n1 [BMS‐754807] | only modest activity |  |  |  |  |  |  |  |  |  |  |  |
| C[C@]1(O)C[C@@H](c2nc(-c3ccc4ccc(-c5ccccc5)nc4c3)c3c(N)nccn32)C1 [Linsitinib] | only modest activity | […] | did not increase | > 10 µM | > 10 µM | > 10 µM | > 10 µM | > 10 µM | 0.075 µM | > 10 µM | > 10 µM | > 10 µM |
